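48-hour exposure; five concentrations; linearly interpolated endpoints. Abbreviation: GI50, concentration required for 50% inhibition of growth. The concentration for full growth arrest is given as TGI.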
How the values were obtained:
Assay in all cases: growth of human tumour cells (NCI), 48 h
786-0 renal = test system: 786-0 renal
A498 renal = test system: A498 renal
A549 NSCLC = test system: A549 NSCLC
ACHN renal = test system: ACHN renal
BT-549 breast = test system: BT-549 breast
CAKI-1 renal = test system: CAKI-1 renal
CCRF-CEM leukemia = test system: CCRF-CEM leukemia
COLO 205 colon = test system: COLO 205 colon
DU-145 prostate = test system: DU-145 prostate
EKVX NSCLC = test system: EKVX NSCLC
HCC-2998 colon = test system: HCC-2998 colon
HCT-116 colon = test system: HCT-116 colon
HCT-15 colon = test system: HCT-15 colon
HL-60(TB) leukemia = test system: HL-60(TB) leukemia
HOP-62 NSCLC = test system: HOP-62 NSCLC
HOP-92 NSCLC = test system: HOP-92 NSCLC
HS 578T breast = test system: HS 578T breast
HT29 colon = test system: HT29 colon
IGROV1 ovarian = test system: IGROV1 ovarian
K-562 leukemia = test system: K-562 leukemia
KM12 colon = test system: KM12 colon
LOX IMVI melanoma = test system: LOX IMVI melanoma
M14 melanoma = test system: M14 melanoma
MALME-3M melanoma = test system: MALME-3M melanoma
MCF7 breast = test system: MCF7 breast
MDA-MB-231 breast = test system: MDA-MB-231 breast
MDA-MB-435 = test system: MDA-MB-435
MOLT-4 leukemia = test system: MOLT-4 leukemia
NCI-H226 lung = test system: NCI-H226 lung
NCI-H23 lung = test system: NCI-H23 lung
NCI-H460 lung = test system: NCI-H460 lung
NCI-H522 lung = test system: NCI-H522 lung
NCI/ADR-RES ovarian = test system: NCI/ADR-RES ovarian
OVCAR-3 ovarian = test system: OVCAR-3 ovarian
OVCAR-4 ovarian = test system: OVCAR-4 ovarian
OVCAR-5 ovarian = test system: OVCAR-5 ovarian
OVCAR-8 ovarian = test system: OVCAR-8 ovarian
PC-3 prostate = test system: PC-3 prostate
RPMI-8226 leukemia = test system: RPMI-8226 leukemia
RXF 393 renal = test system: RXF 393 renal
SF-268 CNS = test system: SF-268 CNS
SF-295 CNS = test system: SF-295 CNS
SF-539 CNS = test system: SF-539 CNS
SK-MEL-2 melanoma = test system: SK-MEL-2 melanoma
SK-MEL-28 melanoma = test system: SK-MEL-28 melanoma
SK-MEL-5 melanoma = test system: SK-MEL-5 melanoma
SN12C renal = test system: SN12C renal
SNB-19 CNS = test system: SNB-19 CNS
SNB-75 CNS = test system: SNB-75 CNS
SW-620 colon = test system: SW-620 colon
T-47D breast = test system: T-47D breast
TK-10 renal = test system: TK-10 renal
U251 CNS = test system: U251 CNS
UACC-257 melanoma = test system: UACC-257 melanoma
UACC-62 melanoma = test system: UACC-62 melanoma
UO-31 renal = test system: UO-31 renal

## C=CC(=O)N1CC[C@H](n2nc(C#Cc3cc(OC)cc(OC)c3)c3c(N)ncnc32)C1
786-0 renal
  GI50: 2.24 µM
  TGI: > 100 µM
A498 renal
  TGI: 1.6 µM
A549 NSCLC
  GI50: 9.78 µM
  TGI: > 100 µM
ACHN renal
  GI50: 3.76 µM
  TGI: > 100 µM
BT-549 breast
  GI50: 1.05 µM
  TGI: 9.56 µM
CAKI-1 renal
  GI50: 7.06 µM
  TGI: > 100 µM
CCRF-CEM leukemia
  GI50: 4.57 µM
  TGI: > 100 µM
COLO 205 colon
  GI50: 15.8 µM
  TGI: > 100 µM
DU-145 prostate
  GI50: 7.56 µM
  TGI: > 100 µM
EKVX NSCLC
  GI50: 30.7 µM
  TGI: > 100 µM
HCC-2998 colon
  GI50: 17.2 µM
  TGI: > 100 µM
HCT-116 colon
  GI50: 6.04 µM
  TGI: > 100 µM
HCT-15 colon
  GI50: 5.53 µM
  TGI: > 100 µM
HL-60(TB) leukemia
  GI50: 6.23 µM
  TGI: 70.4 µM
HOP-62 NSCLC
  GI50: 5.43 µM
  TGI: > 100 µM
HOP-92 NSCLC
  GI50: 1.84 µM
  TGI: 9.23 µM
HS 578T breast
  GI50: 1.71 µM
  TGI: 9.82 µM
HT29 colon
  GI50: 13.9 µM
  TGI: > 100 µM
IGROV1 ovarian
  GI50: 2.88 µM
  TGI: > 100 µM
K-562 leukemia
  GI50: 13.2 µM
  TGI: > 100 µM
KM12 colon
  GI50: 11.2 µM
  TGI: > 100 µM
LOX IMVI melanoma
  GI50: 5.72 µM
  TGI: > 100 µM
M14 melanoma
  GI50: 15.3 µM
  TGI: > 100 µM
MALME-3M melanoma
  GI50: 15.6 µM
  TGI: > 100 µM
MCF7 breast
  GI50: 3.78 µM
  TGI: > 100 µM
MDA-MB-231 breast
  GI50: 4.07 µM
  TGI: > 100 µM
MDA-MB-435
  GI50: 10.6 µM
  TGI: > 100 µM
MOLT-4 leukemia
  GI50: 5.02 µM
  TGI: 69.3 µM
NCI-H226 lung
  GI50: 6.42 µM
  TGI: > 100 µM
NCI-H23 lung
  GI50: 17.5 µM
  TGI: > 100 µM
NCI-H460 lung
  GI50: 9.97 µM
  TGI: > 100 µM
NCI-H522 lung
  GI50: 7.56 µM
  TGI: 37.9 µM
NCI/ADR-RES ovarian
  GI50: 12.7 µM
  TGI: > 100 µM
OVCAR-3 ovarian
  GI50: 4.13 µM
  TGI: > 100 µM
OVCAR-4 ovarian
  GI50: 3.47 µM
  TGI: > 100 µM
OVCAR-5 ovarian
  GI50: 62.3 µM
  TGI: > 100 µM
OVCAR-8 ovarian
  GI50: 8.36 µM
  TGI: > 100 µM
PC-3 prostate
  GI50: 11.3 µM
  TGI: > 100 µM
RPMI-8226 leukemia
  GI50: 2.45 µM
  TGI: 33.3 µM
RXF 393 renal
  GI50: 1.06 µM
  TGI: 4.48 µM
SF-268 CNS
  GI50: 4.19 µM
  TGI: > 100 µM
SF-295 CNS
  GI50: 15.5 µM
  TGI: > 100 µM
SF-539 CNS
  GI50: 2.6 µM
  TGI: 65.9 µM
SK-MEL-2 melanoma
  GI50: 8.49 µM
  TGI: 52.1 µM
SK-MEL-28 melanoma
  GI50: 21.9 µM
  TGI: > 100 µM
SK-MEL-5 melanoma
  GI50: 9.57 µM
  TGI: 67.8 µM
SN12C renal
  GI50: 4.43 µM
  TGI: > 100 µM
SNB-19 CNS
  GI50: 7.66 µM
  TGI: > 100 µM
SNB-75 CNS
  GI50: 0.343 µM
  TGI: 6.91 µM
SW-620 colon
  GI50: 15 µM
  TGI: > 100 µM
T-47D breast
  GI50: 5.22 µM
  TGI: > 100 µM
TK-10 renal
  GI50: 4.03 µM
  TGI: > 100 µM
U251 CNS
  GI50: 6.38 µM
  TGI: > 100 µM
UACC-257 melanoma
  GI50: 10.8 µM
  TGI: > 100 µM
UACC-62 melanoma
  GI50: 6.95 µM
  TGI: > 100 µM
UO-31 renal
  GI50: 1.32 µM
  TGI: > 100 µM
